Assay results as given in patent US20060194805A1, “Capsaicin receptor agonists” (Neurogen Corporation, priority 2003, published 2006).
pEC50: −log10 of the molar value.

Target: T1, human capsaicin receptor (Homo sapiens, UniProt Q8NER1)
T1 construct: transfected with the pBK-CMV expression construct encoding the full length human capsaicin receptor; expressed in transfected cells
Assay: Calcium mobilization assay (determination of agonist activity), Example 7
Type: cell-based
Conditions: for pEC50: HEK293 cells expressing human capsaicin receptor, FLUO-3 calcium fluorescence, read-out: EC50, capsaicin receptor agonist activity as described in Example 7
Source text: A cDNA encoding full length human capsaicin receptor (SEQ ID NO:1, 2 or 3 of U.S. Pat. No. 6,482,611) was subcloned in the plasmid pBK-CMV (Stratagene, La Jolla, Calif.) for recombinant expression in mammalian cells.
Human embryonic kidney (HEK293) cells were transfected with the pBK-CMV expression construct encoding the full length human capsaicin receptor using standard methods. […] Independent clones were isolated from this pool by limiting dilution to obtain clonal stable cell lines for use in subsequent experiments.
The culture medium is emptied from the 96 well plates and FLUO-3 AM calcium sensitive dye (Molecular Probes, Eugene, Oreg.) is added to each well (dye solution: 1 mg FLUO-3 AM, 440 μL DMSO and 440 μl 20% pluronic acid in DMSO, diluted 1:250 in Krebs-Ringer HEPES (KRH) buffer (25 mM HEPES, 5 mM KCl, 0.96 mM NaH2PO4, 1 mM MgSO4, 2 mM CaCl2, 5 mM glucose, 1 mM probenecid, pH 7.4), 50 μl diluted solution per well). Plates are covered with aluminum foil and incubated at 37° C. for 1-2 hours in an environment containing 5% CO2.
To measure the ability of a test compound to agonize or antagonize a calcium mobilization response in cells expressing capsaicin receptors to capsaicin or other vanilloid agonist, the EC50 of the agonist capsaicin is first determined. An additional 20 μl of KRH buffer and 1 μl DMSO is added to each well of cells, prepared as described above. 100 μl capsaicin in KRH buffer is automatically transferred by the FLIPR instrument to each well. Capsaicin-induced calcium mobilization is monitored using either FLUOROSKAN ASCENT (Labsystems; Franklin, Mass.) or FLIPR (fluorometric imaging plate reader system; Molecular Devices, Sunnyvale, Calif.) instruments. Data obtained between 30 and 60 seconds after agonist application are used to generate an 8-point concentration response curve, with final capsaicin concentrations of 1 nM to 3 μM. […] software (Synergy Software, Reading, Pa.) is used to fit the data to the equation: y=a*(1/(1+(b/x)c)) to determine the 50% excitatory concentration (EC50) for the response. In this equation, y is the maximum fluorescence signal, x is the concentration of the agonist or antagonist (in this case, capsaicin), a is the Emax, b corresponds to the EC50 value and c is the Hill coefficient. Determination of Agonist Activity
Test compounds are dissolved in DMSO, diluted in KRH buffer, and immediately added to cells prepared as described above. […] The final concentration of test compounds in the assay wells is between 0.1 nM and 5 μM.
The ability of a test compound to act as an agonist of the capsaicin receptor is determined by measuring the fluorescence response of cells expressing capsaicin receptors elicited by the compound as function of compound concentration.

T1 sequence (Q8NER1 whole entry): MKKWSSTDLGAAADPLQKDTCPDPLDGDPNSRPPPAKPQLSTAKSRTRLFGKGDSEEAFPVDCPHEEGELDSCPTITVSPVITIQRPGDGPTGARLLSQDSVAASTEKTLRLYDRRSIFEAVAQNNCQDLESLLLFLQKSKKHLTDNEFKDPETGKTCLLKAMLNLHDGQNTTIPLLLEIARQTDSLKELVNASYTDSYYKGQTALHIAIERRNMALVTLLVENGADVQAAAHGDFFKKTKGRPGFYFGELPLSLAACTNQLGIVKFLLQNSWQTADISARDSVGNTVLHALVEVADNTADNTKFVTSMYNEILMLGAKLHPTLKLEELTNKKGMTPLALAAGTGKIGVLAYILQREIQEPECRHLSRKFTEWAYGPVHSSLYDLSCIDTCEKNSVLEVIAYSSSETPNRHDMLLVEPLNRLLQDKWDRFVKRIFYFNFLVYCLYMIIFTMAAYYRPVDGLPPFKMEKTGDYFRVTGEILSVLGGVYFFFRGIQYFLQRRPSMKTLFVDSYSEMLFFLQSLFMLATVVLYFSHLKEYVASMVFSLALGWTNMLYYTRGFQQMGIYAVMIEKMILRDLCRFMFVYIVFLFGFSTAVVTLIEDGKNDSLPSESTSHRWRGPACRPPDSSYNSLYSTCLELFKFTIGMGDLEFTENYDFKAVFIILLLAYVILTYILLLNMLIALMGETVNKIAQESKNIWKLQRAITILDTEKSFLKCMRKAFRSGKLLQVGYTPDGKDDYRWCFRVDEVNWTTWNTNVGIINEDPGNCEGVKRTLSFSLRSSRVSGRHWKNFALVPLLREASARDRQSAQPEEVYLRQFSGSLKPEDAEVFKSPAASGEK

SMILES	pEC50	EC90 (capsaicin positive control, calcium mobilization, read-out: approximate EC90 concentration)
FC(F)(F)c1ccc(Nc2ncnc3cc(Br)ccc23)nc1 [Compound 1, (7-bromo-quinazolin-4-yl)-(5-trifluoromethyl-pyridin-2-yl)-amine]	> 6.00	–
CC(C)(C)c1cc(Nc2ncnc3cc(Br)cnc23)no1 [Compound 2]	> 6.00	–
C[C@@H]1CN(Cc2nc(Nc3ccc(C(C)(C)C)cc3)c3ccc(C(F)(F)F)cc3n2)C[C@H](C)O1 [Compound 3, (4-t-butyl-phenyl)-[2-(cis-2,6-dimethyl-morpholin-4-ylmethyl)-7-trifluoromethyl-quinazolin-4-yl)-amine]	> 6.00	–
CCCn1c(CN(Cc2ccc(Cl)cc2Cl)Cc2c(OCC)ccc3ccccc23)nc2cc(F)ccc21 [Compound 55]	> 6.00	–
O=C(NCc1ccccc1)c1cc(-c2cccc(Cl)c2)nc2ccncc12 [Compound 65, 2-(3-chloro-phenyl)-[1, 6]-naphthyridine-4-carboxylic acid benzylamide]	> 6.00	–
COc1cc(CNC(=O)CCCC/C=C/C(C)C)ccc1O [capsaicin]	–	~0.1 µM
